Article PMC11350787, “Antimicrobial Properties and Cytotoxicity of LL-37-Derived Synthetic Peptides to Treat Orthopedic Infections” (Antibiotics, 2024)
Values after ≈ are worked out from the molar mass of the structure shown.

Tests used:
E. coli ATCC 25922 = assay: microbe, parasite or virus in culture
Description: (§1) A total of 18 bacterial strains relevant to orthopedic infections were used for microbiological tests, including 8 ATCC (American Type Culture Collection, ATCC, Manassas, VA, USA) and 10 clinical isolates (CI) from the Laboratory of Clinical Chemistry and Microbiology, IRCCS Ospedale Galeazzi–Sant’Ambrogio of Milan (Italy) strain collection. The ATCC strains were used for the first screening (MIC/MBC) of all the AMPs produced, while the clinical isolates were used for further MIC/MBC assays on selected AMPs. Among CI, S. epidermidis GOI1153754-03-14 has been already characterized and used in previous studies. All the strains were stocked at −80°C and working stocks were stored at −20 °C. At the occurrence, the bacteria were resuscitated in Brain Hearth Infusion (BHI, Millipore, Milan, Italy) broth at 37 °C for 18 h from the working stocks.
(§2) To determine the minimum inhibitory concentration (MIC) and the minimum bactericidal concentration (MBC), ISO20776-1 and Clinical and Laboratory Standards Institute guidelines were followed. A commercial synthetic LL-37 (Aurogene, Rome, Italy) was used as the control in the MIC and MBC assays. A stock solution of each AMP was prepared at 600 µg/mL to achieve a final concentration of 300 µg/mL. […] The MIC was determined according to the aforementioned standard guidelines. The MBC was determined by plating 2 µL of culture from each well of the MIC plates on a Tryptic Soy Agar (TSA, Millipore, Milan, Italy) plate and incubated for 24 h at 37 °C. The concentration at which there was no growth was recorded as MBC. Each experiment was carried out in triplicate. Representative MIC and MBC values for vancomycin and gentamicin were assessed to offer a benchmark comparison for the AMPs. Quality control was conducted with Staphylococcus aureus ATCC 29,213 and vancomycin according to EUCAST guidelines.

P. aeruginosa ATCC 27853 = assay: microbe, parasite or virus in culture
Description: as §1, §2

S. aureus ATCC 25923 = assay: microbe, parasite or virus in culture
Description: as §1, §2

S. aureus ATCC 43300 = assay: microbe, parasite or virus in culture
Description: as §1, §2

[1] = test system: S. epidermidis GOI1153754-03-14 (CI); assay: microbe, parasite or virus in culture
Description: as §1, §2

[2] = test system: S. aureus ATCC 49230 biofilm; assay: Biofilm removal activity (CLSM, LIVE/DEAD); assay type: cell-based; conditions: 72-h-old biofilm; 18 h; vancomycin 0.5% vs FK-16 75 µg/mL; p < 0.01
Description: (§3) Rough titanium disks (Adler Ortho, Cormano, Milan, Italy) were autoclaved at 121°C for 15 min and placed into sterile 6-well plates. S. epidermidis ATCC 35984, S. epidermidis GOI1153754-03-14, S. aureus ATCC 49,230 and S. aureus Sau89 were grown overnight in BHI broth at 37 °C. The culture was diluted up to 1.5 × 10^6 in BHI broth and 6 mL of each culture was inoculated in the disk containing wells. Two disks were inoculated with sterile BHI as sterility control. All the plates were incubated at 37 °C for 72 h. After incubation, the disks were gently washed with sterile saline to remove unattached cells. Each disk was treated with either vancomycin at 0.5% (Pharmatex, Milan, Italy), GF-17 (18.75 µg/mL) or FK-16 (75 µg/mL) for 18 h. Two disks for each bacterial inoculum were untreated as control. Subsequently, disks were gently washed with sterile saline solution and stained with Filmtracer^TM LIVE/DEAD^TM Biofilm Viability Kit (Thermo Fisher Diagnostics, Monza, Italy), according to the manufacturer’s instructions, washed again with sterile saline and observed with an upright TCS SP8 (Leica Microsystems CMS GmbH, Mannheim, Germany) using a 20X dry objective (HC PL FLUOTAR 20X/0.50 DRY). The images were acquired with Las X (Leica Microsystems CMS GmbH, Mannheim, Germany) and analyzed with Fiji software (Fiji, ImageJ version 1.53t, Wayne Rasband National Institutes of Health). For each channel, the biofilm area was measured after setting the threshold at 14 for the red channel and 20 for the green channel. The biofilm data were expressed as the percentage of red signal (dead cells) relative to the green channel (live cells). Finally, the data were normalized against the control, which was set to 1.

S. aureus Sau89 biofilm = assay: Biofilm removal activity (CLSM, LIVE/DEAD); assay type: cell-based; conditions: 72-h-old biofilm; 18 h; vancomycin 0.5% vs FK-16 75 µg/mL; p < 0.05
Description: as §3

[3] = test system: S. epidermidis ATCC 35984 biofilm; assay: Biofilm removal activity (CLSM, LIVE/DEAD); assay type: cell-based; conditions: 72-h-old biofilm; 18 h; vancomycin 0.5%; p < 0.01 vs FK-16
Description: as §3

[4] = test system: S. epidermidis GOI1153754-03-14 biofilm; assay: Biofilm removal activity (CLSM, LIVE/DEAD); assay type: cell-based; conditions: titanium disks; 18 h treatment; FK-16 75 µg/mL, GF-17 18.75 µg/mL, vancomycin 0.5%
Description: as §3

SMILES: CN[C@H](CC(C)C)C(=O)N[C@H]1C(=O)N[C@@H](CC(N)=O)C(=O)N[C@H]2C(=O)N[C@H]3C(=O)N[C@H](C(=O)N[C@H](C(=O)O)c4cc(O)cc(O)c4-c4cc3ccc4O)[C@H](O)c3ccc(c(Cl)c3)Oc3cc2cc(c3O[C@@H]2O[C@H](CO)[C@@H](O)[C@H](O)[C@H]2O[C@H]2C[C@](C)(N)[C@H](O)[C@H](C)O2)Oc2ccc(cc2Cl)[C@H]1O [Van, vancomycin]
- Susceptibility category by MIC (EUCAST clinical breakpoints tables, v. 14) (E. coli ATCC 25922; E. coli 25922): R
- MBC (E. coli ATCC 25922; Escherichia coli, ATCC25922, 24 h, read-out: Minimum Bactericidal Concentration (MBC)): > 40 µg/mL
- MIC (E. coli ATCC 25922; Escherichia coli, ATCC25922, read-out: Minimum Inhibitory Concentration (MIC)): > 40 µg/mL
- Susceptibility category by MIC (EUCAST clinical breakpoints tables, v. 14) (P. aeruginosa ATCC 27853; P. aeruginosa 27853): R
- MBC (P. aeruginosa ATCC 27853; Pseudomonas aeruginosa, ATCC27853, 24 h, read-out: Minimum Bactericidal Concentration (MBC)): > 40 µg/mL
- MIC (P. aeruginosa ATCC 27853; Pseudomonas aeruginosa, ATCC27853, read-out: Minimum Inhibitory Concentration (MIC)): > 40 µg/mL
- Susceptibility category by MIC (EUCAST clinical breakpoints tables, v. 14) (S. aureus ATCC 25923; S. aureus 25923): S
- MBC (S. aureus ATCC 25923; Staphylococcus aureus, ATCC25923, 24 h, read-out: Minimum Bactericidal Concentration (MBC)): 0.6 µg/mL (≈ 0.414 µM)
- MIC (S. aureus ATCC 25923; Staphylococcus aureus, ATCC25923, read-out: Minimum Inhibitory Concentration (MIC)): 0.6 µg/mL (≈ 0.414 µM)
- Susceptibility category by MIC (EUCAST clinical breakpoints tables, version 14) (S. aureus ATCC 43300; S. aureus 43,300 as printed in text): S
- MBC (S. aureus ATCC 43300; Staphylococcus aureus, ATCC43300, 24 h, read-out: Minimum Bactericidal Concentration (MBC)): 0.6 µg/mL (≈ 0.414 µM)
- MIC (S. aureus ATCC 43300; Staphylococcus aureus, ATCC43300, read-out: Minimum Inhibitory Concentration (MIC)): 0.6 µg/mL (≈ 0.414 µM)
- Susceptibility category by MIC (EUCAST clinical breakpoints tables, v. 14) ([1]; S. epidermidis GOI1153754-03-14): S
- MBC ([1]; Staphylococcus epidermidis, read-out: Minimum Bactericidal Concentration (MBC)): 2.5 µg/mL (≈ 1.73 µM)
- MIC ([1]; Staphylococcus epidermidis, read-out: Minimum Inhibitory Concentration (MIC)): 1.25 µg/mL (≈ 0.863 µM)
- Dead bacteria in biofilm (quantitative analysis of fluorescent signals, relative mortality) [2]: more dead cells compared to FK-16 treatment
- Dead bacteria in biofilm (quantitative analysis of fluorescent signals, relative mortality) (S. aureus Sau89 biofilm): more dead cells compared to FK-16 treatment
- Dead bacteria in biofilm (quantitative analysis of fluorescent signals, relative mortality) [3]: higher than the uninoculated control
- CLSM observation of treated 72-h-old biofilm (live green / dead red) [4]: less disruptive effect
